# Data from US20050245456A1, “Combination therapy to prevent and treat diarrhea induced by cancer treatment” (Pfizer Inc, priority 2004, published 2005).
# Experiments:
# [1] = Phase 1 trial: diarrhea induced by the isothiazole derivative; format: in vivo, human; conditions: almost all subjects at doses greater than 160 mg/day, within the first few days
# Experimental: Susceptible subjects are encouraged to adhere to a daily schedule of prophylactic anti-diarrheal agents, such as Loperamide, Octreotide, Loperamide, Tamoxifen, a bulking agent, or an anti-estrogen. To treat the diarrhea in these patients, a therapeutically effective amount of 3-(4-Bromo-2,6-difluoro-benzyloxy)-5-[3-(4-pyrrolidin-1-yl-butyl)-ureido]-isothiazole-4-carboxylic acid amide HCl is administered to a patient in need of such therapy, prior to, simultaneously or sequentially with a therapeutically effective amount of Loperamide, Octreotide, Loperamide, Tamoxifen, a bulking agent, or an anti-estrogen.
# [2] = patients who experienced this side-effect during a previous course of chemotherapy; Cascinu et al. 1994; cited from earlier work
# [3] = cited from earlier work
# [4] = tested on: MCF-7 breast cancer cells; conditions: Otto et al. 1996; cited from earlier work
compound,measurement,setting,value
"NC(=O)c1c(OCc2c(F)cc(Br)cc2F)nsc1NC(=O)NCCCCN1CCCC1 [3-(4-Bromo-2,6-difluoro-benzyloxy)-5-[3-(4-pyrrolidin-1-yl-butyl)-ureido]-isothiazole-4-carboxylic acid amide]",diarrhea developed by subjects (CTC grade),[1],Grade 1 or 2 diarrhea
C[C@@H](O)[C@@H]1NC(=O)[C@H](CCCCN)NC(=O)[C@@H](Cc2c[nH]c3ccccc23)NC(=O)[C@H](Cc2ccccc2)NC(=O)[C@@H](NC(=O)[C@H](N)Cc2ccccc2)CSSC[C@@H](C(=O)N[C@H](CO)[C@@H](C)O)NC1=O [Octreotide],prevention of diarrhea associated with cisplatin,[2],active in preventing diarrhea
same,treatment of diarrhea after chemotherapy with 5-fluorouracil,"[3]; 11 patients with colorectal cancer, Kennedy et al. 1990",encouraging results
same,efficacy versus Loperamide in therapy of 5-fluorouracil-induced diarrhea,"[3]; randomized trial, Cascinu et al. 1993",more effective than Loperamide
CC/C(=C(\c1ccccc1)c1ccc(OCCN(C)C)cc1)c1ccccc1 [Tamoxifen],effect on cell cycle progression,[4],blocks cell cycle progression in G0/G1
